Data: patent US20250034136A1 (Nimbus Wadjet, Inc., priority 2023, published 2025)

Assays:
[1] = molecular target: WRN (BV08), human Werner helicase (Uniprot Q14191, amino acids 517-1235 with L1074F point mutation) (Homo sapiens (Human), UniProt Q14191, L1074F); assay: WRN (BV08) ADP-Glo assay; type: biochemical; conditions: class symbols A-E, read-out: ADP-Glo_hWRN_IC50
[2] = test system: p21 induction in HCT116 cells; assay: p21 induction in HCT116 cells; type: cell-based; conditions: Homo sapiens, HCT-116, 24 h, HCT116 cells, 24 h compound incubation; read-out: P21_EC50
How it was run: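 EC50 from non-linear curve fit of p21 immunofluorescence (800 nm), with GAPDH (700 nm) read alongside. DMSO and a reference WRN inhibitor served as low and high controls. Cells (2,000/well) got 11 compound concentrations in duplicate for 24 h at 37 °C.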

WRN (BV08), human Werner helicase (Uniprot Q14191, amino acids 517-1235 with L1074F point mutation), sequence (Q14191 other isoform, or with tags, fused parts or gaps L1074F (already in the parent)): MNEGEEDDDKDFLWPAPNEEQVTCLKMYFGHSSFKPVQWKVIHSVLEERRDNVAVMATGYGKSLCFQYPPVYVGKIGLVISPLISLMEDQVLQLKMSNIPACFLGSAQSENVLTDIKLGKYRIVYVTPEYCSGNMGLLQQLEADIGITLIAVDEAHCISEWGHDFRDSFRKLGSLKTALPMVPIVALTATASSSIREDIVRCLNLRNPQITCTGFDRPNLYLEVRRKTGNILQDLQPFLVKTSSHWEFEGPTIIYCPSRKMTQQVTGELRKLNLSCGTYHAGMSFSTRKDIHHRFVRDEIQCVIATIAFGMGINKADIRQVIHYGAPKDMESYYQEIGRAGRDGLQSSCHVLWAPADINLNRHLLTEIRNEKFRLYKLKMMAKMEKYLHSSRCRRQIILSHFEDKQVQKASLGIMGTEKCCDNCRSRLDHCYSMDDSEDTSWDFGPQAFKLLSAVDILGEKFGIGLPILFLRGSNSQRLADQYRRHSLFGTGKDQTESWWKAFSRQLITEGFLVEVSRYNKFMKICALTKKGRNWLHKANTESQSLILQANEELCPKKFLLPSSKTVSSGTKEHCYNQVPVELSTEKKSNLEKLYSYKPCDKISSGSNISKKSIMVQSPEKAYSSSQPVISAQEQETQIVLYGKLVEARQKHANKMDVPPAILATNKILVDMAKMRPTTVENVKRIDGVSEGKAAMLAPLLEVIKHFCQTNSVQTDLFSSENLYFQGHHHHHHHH

Row | IC50 [1] | EC50 [2] | SMILES
1 | > 500 nM | > 5000 nM | CCc1c(N2CCN(C(=O)c3ncnc(C)c3O)CC2)c(=O)c2nc(N(C)CCN(C)C)cnc2n1CC(=O)Nc1ccc(C(F)(F)F)cc1Cl [I-154, N-[2-chloro-4-(trifluoromethyl)phenyl]-2-(2-{[2-(dimethylamino)ethyl](methyl)amino}-6-ethyl-7-[4-(5-hydroxy-6-methylpyrimidine-4-carbonyl)piperazin-1-yl]-8-oxo-5H,8H-pyrido[2,3-b]pyrazin-5-yl)acetamide]
2 | 50 to 100 nM | > 5000 nM | CCc1c(N2CCN(C(=O)c3ncnc(C)c3O)CC2)c(=O)c2nc(N3C[C@@H]4[C@H](C3)[C@H]4N(C)C)cnc2n1CC(=O)Nc1ccc(C(F)(F)F)cc1Cl [I-155, N-[2-chloro-4-(trifluoromethyl)phenyl]-2-{2-[(1R,5S,6S)-6-(dimethylamino)-3-azabicyclo[3.1.0]hexan-3-yl]-6-ethyl-7-[4-(5-hydroxy-6-methylpyrimidine-4-carbonyl)piperazin-1-yl]-8-oxo-5H,8H-pyrido[2,3-b]pyrazin-5-yl}acetamide]
3 | 5 to 50 nM | 500 to 2000 nM | CCc1c(N2CCN(C(=O)c3ncnc(C)c3O)CC2)c(=O)c2nc(N3CC4CC4C3)cnc2n1CC(=O)Nc1ccc(C(F)(F)F)cc1Cl (stereo not shown) [I-156, 2-(2-{3-azabicyclo[3.1.0]hexan-3-yl}-6-ethyl-7-[4-(5-hydroxy-6-methylpyrimidine-4-carbonyl)piperazin-1-yl]-8-oxo-5H,8H-pyrido[2,3-b]pyrazin-5-yl)-N-[2-chloro-4-(trifluoromethyl)phenyl]acetamide]
4 | 5 to 50 nM | 500 to 2000 nM | C=C(F)c1cnc2c(n1)c(=O)c(N1CCN(C(=O)c3ncnc(C)c3O)CC1)c(CC)n2CC(=O)Nc1ccc(C(F)(F)F)cc1Cl [I-157, N-[2-chloro-4-(trifluoromethyl)phenyl]-2-[6-ethyl-2-(1-fluoroethenyl)-7-[4-(5-hydroxy-6-methylpyrimidine-4-carbonyl)piperazin-1-yl]-8-oxo-5H,8H-pyrido[2,3-b]pyrazin-5-yl]acetamide]
5 | 5 to 50 nM | > 5000 nM | CCc1c(N2CCN(C(=O)c3c(C#N)cnc(C)c3O)CC2)c(=O)c2nc(C)cnc2n1CC(=O)Nc1ccc(C(F)(F)F)cc1Cl [I-158, N-[2-chloro-4-(trifluoromethyl)phenyl]-2-{7-[4-(5-cyano-3-hydroxy-2-methylpyridine-4-carbonyl)piperazin-1-yl]-6-ethyl-2-methyl-8-oxo-5H,8H-pyrido[2,3-b]pyrazin-5-yl}acetamide]
6 | 5 to 50 nM | > 5000 nM | CCc1c(N2CCN(C(=O)c3ncnc(C)c3O)CC2)c(=O)c2nc(C3=CCN(C(=O)OC)C3)cnc2n1CC(=O)Nc1ccc(C(F)(F)F)cc1Cl [I-159, methyl 3-[5-({[2-chloro-4-(trifluoromethyl)phenyl]carbamoyl}methyl)-6-ethyl-7-[4-(5-hydroxy-6-methylpyrimidine-4-carbonyl)piperazin-1-yl]-8-oxo-5H,8H-pyrido[2,3-b]pyrazin-2-yl]-2,5-dihydro-1H-pyrrole-1-carboxylate]
7 | 5 to 50 nM | > 5000 nM | CCc1c(N2CCN(C(=O)c3ncnc(C)c3O)CC2)c(=O)c2nc(N3CC(F)(F)C3)cnc2n1CC(=O)Nc1ccc(C(F)(F)F)cc1Cl [I-160, N-[2-chloro-4-(trifluoromethyl)phenyl]-2-[2-(3,3-difluoroazetidin-1-yl)-6-ethyl-7-[4-(5-hydroxy-6-methylpyrimidine-4-carbonyl)piperazin-1-yl]-8-oxo-5H,8H-pyrido[2,3-b]pyrazin-5-yl]acetamide]
8 | 5 to 50 nM | 2000 to 5000 nM | CCc1c(N2CCN(C(=O)c3ncnc(C)c3O)CC2)c(=O)c2nc(NC3CCC3)cnc2n1CC(=O)Nc1ccc(C(F)(F)F)cc1Cl [I-161, N-[2-chloro-4-(trifluoromethyl)phenyl]-2-[2-(cyclobutylamino)-6-ethyl-7-[4-(5-hydroxy-6-methylpyrimidine-4-carbonyl)piperazin-1-yl]-8-oxo-5H,8H-pyrido[2,3-b]pyrazin-5-yl]acetamide]
9 | 5 to 50 nM | 500 to 2000 nM | CCc1c(N2CCN(C(=O)c3ncnc(C)c3O)CC2)c(=O)c2nc(N3CC4(CC4)C3)cnc2n1CC(=O)Nc1ccc(C(F)(F)F)cc1Cl [I-162, 2-(2-{5-azaspiro[2.3]hexan-5-yl}-6-ethyl-7-[4-(5-hydroxy-6-methylpyrimidine-4-carbonyl)piperazin-1-yl]-8-oxo-5H,8H-pyrido[2,3-b]pyrazin-5-yl)-N-[2-chloro-4-(trifluoromethyl)phenyl]acetamide]
10 | 5 to 50 nM | > 5000 nM | CCc1c(N2CCN(C(=O)c3ncnc(C)c3O)CC2)c(=O)c2nc(N3CCC4(COC4)C3)cnc2n1CC(=O)Nc1ccc(C(F)(F)F)cc1Cl [I-163, N-[2-chloro-4-(trifluoromethyl)phenyl]-2-{6-ethyl-7-[4-(5-hydroxy-6-methylpyrimidine-4-carbonyl)piperazin-1-yl]-2-{2-oxa-6-azaspiro[3.4]octan-6-yl}-8-oxo-5H,8H-pyrido[2,3-b]pyrazin-5-yl}acetamide]
11 | 5 to 50 nM | 2000 to 5000 nM | CCc1c(N2CCN(C(=O)c3ncnc(C)c3O)CC2)c(=O)c2nc(N3CC(F)C3)cnc2n1CC(=O)Nc1ccc(C(F)(F)F)cc1Cl [I-164, N-[2-chloro-4-(trifluoromethyl)phenyl]-2-[6-ethyl-2-(3-fluoroazetidin-1-yl)-7-[4-(5-hydroxy-6-methylpyrimidine-4-carbonyl)piperazin-1-yl]-8-oxo-5H,8H-pyrido[2,3-b]pyrazin-5-yl]acetamide]
12 | 5 to 50 nM | 500 to 2000 nM | CCc1c(N2CCN(C(=O)c3ncnc(C)c3O)CC2)c(=O)c2nc(NC3CC3)cnc2n1CC(=O)Nc1ccc(C(F)(F)F)cc1Cl [I-165, N-[2-chloro-4-(trifluoromethyl)phenyl]-2-[2-(cyclopropylamino)-6-ethyl-7-[4-(5-hydroxy-6-methylpyrimidine-4-carbonyl)piperazin-1-yl]-8-oxo-5H,8H-pyrido[2,3-b]pyrazin-5-yl]acetamide]
13 | ≤ 5 nM | 500 to 2000 nM | CCc1c(N2CCN(C(=O)c3ncnc(C)c3O)CC2)c(=O)c2nc(C=C3CCCC3)cnc2n1CC(=O)Nc1ccc(C(F)(F)F)cc1Cl [I-166, N-[2-chloro-4-(trifluoromethyl)phenyl]-2-[2-(cyclopentylidenemethyl)-6-ethyl-7-[4-(5-hydroxy-6-methylpyrimidine-4-carbonyl)piperazin-1-yl]-8-oxo-5H,8H-pyrido[2,3-b]pyrazin-5-yl]acetamide]
14 | 5 to 50 nM | 2000 to 5000 nM | CCc1c(N2CCN(C(=O)c3ncnc(C)c3O)CC2)c(=O)c2nc(N(C)CC(F)F)cnc2n1CC(=O)Nc1ccc(C(F)(F)F)cc1Cl [I-167, N-[2-chloro-4-(trifluoromethyl)phenyl]-2-{2-[(2,2-difluoroethyl)(methyl)amino]-6-ethyl-7-[4-(5-hydroxy-6-methylpyrimidine-4-carbonyl)piperazin-1-yl]-8-oxo-5H,8H-pyrido[2,3-b]pyrazin-5-yl}acetamide]
15 | 5 to 50 nM | < 500 nM | CCc1c(N2CCN(C(=O)c3ncnc(C)c3O)CC2)c(=O)c2nc(N3CCC34CCC4)cnc2n1CC(=O)Nc1ccc(C(F)(F)F)cc1Cl [I-170, 2-(2-{1-azaspiro[3.3]heptan-1-yl}-6-ethyl-7-[4-(5-hydroxy-6-methylpyrimidine-4-carbonyl)piperazin-1-yl]-8-oxo-5H,8H-pyrido[2,3-b]pyrazin-5-yl)-N-[2-chloro-4-(trifluoromethyl)phenyl]acetamide]
16 | 5 to 50 nM | 2000 to 5000 nM | CCc1c(N2CCN(C(=O)c3ncnc(C)c3O)CC2)c(=O)c2nc(C(C)(C)F)cnc2n1CC(=O)Nc1ccc(C(F)(F)F)cc1Cl [I-174, N-[2-chloro-4-(trifluoromethyl)phenyl]-2-[6-ethyl-2-(2-fluoropropan-2-yl)-7-[4-(5-hydroxy-6-methylpyrimidine-4-carbonyl)piperazin-1-yl]-8-oxo-5H,8H-pyrido[2,3-b]pyrazin-5-yl]acetamide]
17 | 5 to 50 nM | 2000 to 5000 nM | CCc1c(N2CCN(C(=O)c3ncnc(C)c3O)CC2)c(=O)c2nc(N(C)C(C)C)cnc2n1CC(=O)Nc1ccc(C(F)(F)F)cc1Cl [I-175, N-[2-chloro-4-(trifluoromethyl)phenyl]-2-{6-ethyl-7-[4-(5-hydroxy-6-methylpyrimidine-4-carbonyl)piperazin-1-yl]-2-[methyl(propan-2-yl)amino]-8-oxo-5H,8H-pyrido[2,3-b]pyrazin-5-yl}acetamide]
18 | 50 to 100 nM | > 5000 nM | CCc1c(N2CCN(C(=O)c3ncnc(C)c3O)C3(CC3)C2)c(=O)c2nc(N(C)C)cnc2n1CC(=O)Nc1ccc(C(F)(F)F)cc1Cl [I-176, N-[2-chloro-4-(trifluoromethyl)phenyl]-2-[2-(dimethylamino)-6-ethyl-7-[4-(5-hydroxy-6-methylpyrimidine-4-carbonyl)-4,7-diazaspiro[2.5]octan-7-yl]-8-oxo-5H,8H-pyrido[2,3-b]pyrazin-5-yl]acetamide]
19 | 5 to 50 nM | > 5000 nM | CCc1c(N2CCN(C(=O)c3ncnc(C)c3O)CC2)c(=O)c2nc(N3CCC(F)(F)C3)cnc2n1CC(=O)Nc1ccc(C(F)(F)F)cc1Cl [I-177, N-[2-chloro-4-(trifluoromethyl)phenyl]-2-[2-(3,3-difluoropyrrolidin-1-yl)-6-ethyl-7-[4-(5-hydroxy-6-methylpyrimidine-4-carbonyl)piperazin-1-yl]-8-oxo-5H,8H-pyrido[2,3-b]pyrazin-5-yl]acetamide]

Row | SMILES | IC50 [1] | EC50 [2]
20 | CCc1c(N2CC3COCC(C2)N3C(=O)c2ncnc(C)c2O)c(=O)c2nc(N(C)C)cnc2n1CC(=O)Nc1ccc(C(F)(F)F)cc1Cl [I-168, N-[2-chloro-4-(trifluoromethyl)phenyl]-2-[2-(dimethylamino)-6-ethyl-7-[9-(5-hydroxy-6-methylpyrimidine-4-carbonyl)-3-oxa-7,9-diazabicyclo[3.3.1]nonan-7-yl]-8-oxo-5H,8H-pyrido[2,3-b]pyrazin-5-yl]acetamide] | 100 to 500 nM | > 5000 nM
